Data taken from ChEMBL document CHEMBL1201862, “PubChem BioAssay data set” (2004).
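Exposure lasted 48 hours, with cells grown in 96-well plates and compounds tested at five concentrations. Abbreviation: GI50, concentration required for 50% inhibition of growth.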 The source made the active and inactive calls. Cut-off read from the data, not from the text of the source: active = GI50 up to about 1.1 µM and inactive = higher.

How the values were obtained:
Assay in all cases: NCI anticancer screen, dose series, 48 h
LOX IMVI = test system: LOX IMVI
UACC-257 = test system: UACC-257
SK-MEL-28 = test system: SK-MEL-28
OVCAR-3 = test system: OVCAR-3
RPMI-8226 = test system: RPMI-8226
OVCAR-5 = test system: OVCAR-5
786-0 = test system: 786-0
HT-29 = test system: HT-29
OVCAR-8 = test system: OVCAR-8
UO-31 = test system: UO-31
U-251 = test system: U-251
COLO 205 = test system: COLO 205
Malme-3M = test system: Malme-3M
MOLT-4 = test system: MOLT-4
HL-60 = test system: HL-60
EKVX = test system: EKVX
MDA-MB-231 = test system: MDA-MB-231
MDA-MB-435 = test system: MDA-MB-435
Hs-578T = test system: Hs-578T
DU-145 = test system: DU-145

| SMILES | GI50 (LOX IMVI) | GI50 (UACC-257) | GI50 (SK-MEL-28) | GI50 (OVCAR-3) | GI50 (RPMI-8226) | GI50 (OVCAR-5) | GI50 (786-0) | GI50 (HT-29) | GI50 (OVCAR-8) | GI50 (UO-31) | GI50 (U-251) | GI50 (COLO 205) | GI50 (Malme-3M) | GI50 (MOLT-4) | GI50 (HL-60) | GI50 (EKVX) | GI50 (MDA-MB-231) | GI50 (MDA-MB-435) | GI50 (Hs-578T) | GI50 (DU-145) |
| --- | --- | --- | --- | --- | --- | --- | --- | --- | --- | --- | --- | --- | --- | --- | --- | --- | --- | --- | --- | --- |
| CS(=O)(=O)c1ccc(-c2cc(-c3ccc(S(C)(=O)=O)cc3)[n+](-c3cc(-c4ccc(S(C)(=O)=O)cc4)c([O-])c(-c4ccc(S(C)(=O)=O)cc4)c3)c(-c3ccc(S(C)(=O)=O)cc3)c2)cc1 | > 100 µM (inactive) | 56.5 µM (inactive) | > 100 µM (inactive) | > 100 µM (inactive) | > 100 µM (inactive) | > 100 µM (inactive) | > 100 µM (inactive) | > 100 µM (inactive) | > 100 µM (inactive) | > 100 µM (inactive) | > 100 µM (inactive) | > 100 µM (inactive) | > 100 µM (inactive) | > 100 µM (inactive) | – | – | – | – | – | – |
| CCc1ccccc1NC(=O)CCc1nnc(S)[nH]1 | > 100 µM (inactive) | > 100 µM (inactive) | > 100 µM (inactive) | > 100 µM (inactive) | > 100 µM (inactive) | > 100 µM (inactive) | > 100 µM (inactive) | > 100 µM (inactive) | > 100 µM (inactive) | > 100 µM (inactive) | > 100 µM (inactive) | > 100 µM (inactive) | > 100 µM (inactive) | > 100 µM (inactive) | > 100 µM (inactive) | – | – | – | – | – |
| FC(F)(F)c1ccccc1/C=N/C12CC3CC(CC(C3)C1)C2 | > 100 µM (inactive) | > 100 µM (inactive) | > 100 µM (inactive) | > 100 µM (inactive) | > 100 µM (inactive) | > 100 µM (inactive) | > 100 µM (inactive) | > 100 µM (inactive) | > 100 µM (inactive) | 0.908 µM (active) | > 100 µM (inactive) | > 100 µM (inactive) | > 100 µM (inactive) | > 100 µM (inactive) | > 100 µM (inactive) | > 100 µM (inactive) | – | – | – | – |
| N#Cc1c(-c2ccc([N+](=O)[O-])cc2)c(C#N)c(=O)n(NS(=O)(=O)c2ccccc2)c1S | 18.4 µM (inactive) | 99.8 µM (inactive) | 61.9 µM (inactive) | – | 20.5 µM (inactive) | 61 µM (inactive) | 32.1 µM (inactive) | 36.3 µM (inactive) | 33.2 µM (inactive) | – | 41.3 µM (inactive) | 46.5 µM (inactive) | 48.1 µM (inactive) | 17.5 µM (inactive) | – | 31.3 µM (inactive) | 21.3 µM (inactive) | 38.5 µM (inactive) | 20.8 µM (inactive) | – |
| O=C(O)C1(C(=O)O)CC1 | – | > 100 µM (inactive) | > 100 µM (inactive) | > 100 µM (inactive) | > 100 µM (inactive) | – | > 100 µM (inactive) | – | > 100 µM (inactive) | > 100 µM (inactive) | > 100 µM (inactive) | > 100 µM (inactive) | > 100 µM (inactive) | > 100 µM (inactive) | > 100 µM (inactive) | > 100 µM (inactive) | – | – | – | – |
| COc1cc(S(=O)(=O)Nc2ccc(-c3csc(N4C(=O)CSC4c4ccccc4O)n3)cc2)ccc1Cl (centres undefined) | 34.4 µM (inactive) | 27.7 µM (inactive) | 24.5 µM (inactive) | 84.7 µM (inactive) | 60.5 µM (inactive) | 79.6 µM (inactive) | 69.2 µM (inactive) | 92 µM (inactive) | 55.1 µM (inactive) | 51.3 µM (inactive) | – | 24.5 µM (inactive) | 42.5 µM (inactive) | 88.3 µM (inactive) | 22.2 µM (inactive) | 25.4 µM (inactive) | – | 40.4 µM (inactive) | – | 35.4 µM (inactive) |
| O=C(O)CCC(NC(=O)c1ccc(Nc2nc3ccccc3nc2-c2cccs2)cc1)C(=O)O (centres undefined) | > 100 µM (inactive) | > 100 µM (inactive) | > 100 µM (inactive) | > 100 µM (inactive) | > 100 µM (inactive) | > 100 µM (inactive) | > 100 µM (inactive) | > 100 µM (inactive) | > 100 µM (inactive) | > 100 µM (inactive) | > 100 µM (inactive) | – | > 100 µM (inactive) | > 100 µM (inactive) | > 100 µM (inactive) | > 100 µM (inactive) | – | – | – | – |
| Cc1ccc2nc(NC(=O)C(=O)C3C(=O)NC(=S)NC3=O)sc2c1 | > 100 µM (inactive) | > 100 µM (inactive) | > 100 µM (inactive) | > 100 µM (inactive) | > 100 µM (inactive) | > 100 µM (inactive) | > 100 µM (inactive) | > 100 µM (inactive) | > 100 µM (inactive) | 77.3 µM (inactive) | > 100 µM (inactive) | – | 55.6 µM (inactive) | > 100 µM (inactive) | > 100 µM (inactive) | > 100 µM (inactive) | > 100 µM (inactive) | > 100 µM (inactive) | > 100 µM (inactive) | – |
| N#CC(C#N)=C(C(C#N)C#N)C(C#N)C#N | > 100 µM (inactive) | > 100 µM (inactive) | – | > 100 µM (inactive) | > 100 µM (inactive) | > 100 µM (inactive) | > 100 µM (inactive) | > 100 µM (inactive) | > 100 µM (inactive) | > 100 µM (inactive) | > 100 µM (inactive) | > 100 µM (inactive) | > 100 µM (inactive) | > 100 µM (inactive) | > 100 µM (inactive) | > 100 µM (inactive) | – | – | – | – |
